# Measurements published in patent US20250163006A1, “New Coolants, and Preparations Containing Same” (Symrise AG, priority 2022, published 2025).
# Molecular target: T1, human TRPM8 receptor (Homo sapiens, UniProt Q7Z2W7)
# T1 construct: expressed in transfected cells; host or cells: HEK293, stably transfected, tetracycline-inducible expression
# Assay: Assay on TRPM8 modulators: Ca2+-sensitive dye (Fluo-4) fluorescence in HEK293-TRPM8 test cells
# Type: cell-based
# Set-up: relative TRPM8 activation: concentration or dose not given beside the values
# Details: HEK293 cells recombinantly expressing human TRPM8
# Description: The starting point for cloning the human TRPM8 receptor is an LnCaP cDNA bank. This is commercially available (e.g. BioChain, Hayward, USA) or can be produced from the andro gene-sensitive human prostate adenocarcinoma cell line LnCaP (e.g. ATCC, CRL1740 or ECACC, 891 1021 1) using standard kits.
# The coding TRPM8 sequence (see e.g. http://www. ncbi.nlm.nih.gov/entrez/viewer.fcgi?db=nuccore&id=109689694) can be PCR-amplified and cloned using standard methods. The human TRPM8 gene isolated in this way was used to produce the plasmid plnd_M8. Alternatively, the TRPM8 gene can also be produced synthetically.
# A stably transfected HEK293 cell line was produced as a test cell system using human TRPM8 DNA. Preference was given to HEK293, which offers the possibility of inducing TRPM8 expression using tetracycline via the plasmid introduced.
# A test similar to the test already described in the literature by Behrendt H. J. et al, Br. J. Pharmacol. 141, 2004, 737-745, is performed. The agonization or antagonization of the receptor can be quantified using a Ca^2+-sensitive dye (e.g. FURA, Fluo-4 etc.). Agonists alone cause an increase in the Ca^2+ signal; antagonists cause a reduction in the Ca^2+ signal in the presence of e.g. menthol (detected in each case using the Fluo-4 dye, which has different fluorescence properties due to Ca^2+ ions).
# First, a fresh culture of transformed HEK cells is prepared in cell culture flasks in the usual way. The HEK293-TRPM8 test cells are detached from the cell culture flasks using trypsin and 40,000 cells/well are seeded with 100 μl medium in 96-well plates (Greiner #655948 poly-D-lysine-coated). To induce the TRPM8 receptor, tetracycline is added to the growth medium (DMEM/HG, 10% FCS tetracycline-free, 4 mM L-glutamine, 15 μg/ml blasticidin, 100 μg/ml hygromycin B, 1 μg/ml tetracycline).
# On the following day, the cells are loaded with Fluo-4AM dye and the test is performed. Proceed as follows: Addition of 100 μl/well staining solution Ca-4 kit (RB 141, Molecular Devices) to each 100 μl medium (DMEM/HG, 10% FCS tetracycline-free, 4 mM L-glutamine, 15 μg/ml blasticidin, 100 μg/ml hygromycin B, 1 μg/ml tetracycline).
# Incubation in incubator, 30 minutes/37° C./5% CO2, 30 minutes/RT.
# Preparation of the test substances (different concentrations in 200 μl HBSS buffer), as well as positive controls (different concentrations of menthol, icilin or lonomycin in 200 μl HBSS buffer) and negative controls (only 200 μl HBSS buffer) Addition of the test substances in quantities of 50 μl/well and measurement of the fluorescence change (e.g. in the assay device FLIPR, Molecular Devices or NovoStar, BMG) at 485 nm excitation, 520 nm emission, and evaluation of the potency of the different substances/concentrations and determination of the ECG. e.g. in the FLIPR assay device, Molecular Devices or NovoStar, BMG) at 485 nm excitation, 520 nm emission, and evaluation of the potency of the various substances/concentrations and determination of the EC50 values.
# The test substances are used in triplicates in concentrations of 0.1-200 μM in the assay. Normally, the compounds are kept ready in DMSO solutions and diluted down to a maximum DMSO concentration of 2% for the assay.
# The activity of the active substances in relation to activation of the TRPM8 channel is determined using the assay described. This is done in a concentration-dependent manner. For each active substance, 6 to 10 concentrations are measured as standard. A mathematical method (4-parameter or 5-parameter logistic curve fitting) can be used to determine the EC50 value as the inflection point of the sigmoidal curve from the activity values determined. These are standard biochemical methods that are familiar to experts.
# T1 sequence (Q7Z2W7 whole entry): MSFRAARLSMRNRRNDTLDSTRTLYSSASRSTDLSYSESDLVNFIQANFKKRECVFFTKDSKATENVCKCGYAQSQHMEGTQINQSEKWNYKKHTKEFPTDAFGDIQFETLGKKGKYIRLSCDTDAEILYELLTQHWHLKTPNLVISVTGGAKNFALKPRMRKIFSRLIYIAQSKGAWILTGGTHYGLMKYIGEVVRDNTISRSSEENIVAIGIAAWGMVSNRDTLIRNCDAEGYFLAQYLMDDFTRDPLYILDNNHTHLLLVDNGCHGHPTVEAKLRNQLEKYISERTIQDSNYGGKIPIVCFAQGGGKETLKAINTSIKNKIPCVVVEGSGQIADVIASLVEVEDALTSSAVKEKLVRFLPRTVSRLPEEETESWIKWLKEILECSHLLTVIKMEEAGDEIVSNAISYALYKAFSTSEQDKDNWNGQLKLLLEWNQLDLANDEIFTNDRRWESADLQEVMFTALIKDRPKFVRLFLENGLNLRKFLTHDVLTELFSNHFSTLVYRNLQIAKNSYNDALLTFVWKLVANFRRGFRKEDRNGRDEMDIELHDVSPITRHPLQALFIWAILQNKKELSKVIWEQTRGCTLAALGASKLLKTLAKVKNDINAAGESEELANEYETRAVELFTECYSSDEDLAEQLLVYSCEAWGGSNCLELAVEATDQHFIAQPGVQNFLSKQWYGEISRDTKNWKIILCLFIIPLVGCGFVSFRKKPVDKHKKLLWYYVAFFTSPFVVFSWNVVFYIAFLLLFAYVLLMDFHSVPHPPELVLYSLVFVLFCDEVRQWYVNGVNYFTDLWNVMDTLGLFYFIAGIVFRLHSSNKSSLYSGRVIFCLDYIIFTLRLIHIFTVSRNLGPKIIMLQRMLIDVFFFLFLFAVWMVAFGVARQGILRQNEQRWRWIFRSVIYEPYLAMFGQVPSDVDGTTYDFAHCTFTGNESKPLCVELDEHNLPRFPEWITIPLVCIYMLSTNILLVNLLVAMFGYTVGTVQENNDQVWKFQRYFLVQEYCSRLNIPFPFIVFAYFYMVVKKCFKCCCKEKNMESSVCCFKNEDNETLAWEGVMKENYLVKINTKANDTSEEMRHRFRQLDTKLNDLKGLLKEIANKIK
row,SMILES,relative TRPM8 activation
1,"COCCSc1nnc(-c2ccccc2)c(-c2ccccc2)n1 [Compound B-30, 3-(2-methoxyethyl-sulfanyl)-5,6-diphenyl-1,2,4-triazine]",41%
2,"CCCCSc1nnc(-c2ccccc2)c(-c2ccccc2)n1 [Compound B-31, 3-butylsulfanyl-5,6-diphenyl-1,2,4-triazine]",40%
3,"CC(Sc1nnc(-c2ccccc2)c(-c2ccccc2)n1)C(=O)NCC1CCCO1 (stereo not shown) [Compound B-32, 2-[(5,6-diphenyl-1,2,4-triazin-3-yl)sulfanyl]-N-(tetrahydrofuran-2-ylmethyl)propanamide]",37%
4,"CCC(=O)CSc1nnc(-c2ccccc2)c(-c2ccccc2)n1 [Compound B-33, 1-[(5,6-diphenyl-1,2,4-triazin-3-yl)sulfanyl]butan-2-one]",25%
5,"CNC(=O)C(C)Sc1nncc(-c2ccccc2)n1 (stereo not shown) [Compound B-34, N-methyl-2-[(5-phenyl-1,2,4-triazin-3-yl)sulfanyl]propanamide]",25%
6,"CN(C)CCSc1nnc(-c2ccccc2)c(-c2ccccc2)n1 [Compound B-36, 2-[(5,6-diphenyl-1,2,4-triazin-3-yl)sulfanyl]-N,N-dimethyl-ethanamine]",20%
7,"CCSc1nnc(-c2ccccc2)c(-c2ccccc2)n1 [Compound B-37, 3-ethylsulfanyl-5,6-diphenyl-1,2,4-triazine]",13%
8,"Cc1ccc(-c2nnc(SC(C)C(=O)N3CCCC3)nc2-c2ccc(C)cc2)cc1 (stereo not shown) [Compound B-38, 2-[[5,6-bis(p-tolyl)-1,2,4-triazin-3-yl]sulfanyl]-1-pyrrolidin-1-yl-propan-1-one]",11%
9,"CC(Sc1nnc(-c2ccccc2)c(-c2ccccc2)n1)C(=O)N(C)C1CCCCC1 (stereo not shown) [Compound B-39, N-cyclohexyl-2-[(5,6-diphenyl-1,2,4-triazin-3-yl)sulfanyl]-N-methyl-propanamide]",11%
10,"CNC(=O)C(C)Sc1nnc(-c2ccc(OC)cc2)c(-c2ccc(OC)cc2)n1 (stereo not shown) [Compound B-40, 2-[[5,6-bis(4-methoxyphenyl)-1,2,4-triazin-3-yl]sulfanyl]-N-methyl-propanamide]",9%
11,"COC(=O)Nc1nnc(-c2ccccc2)c(-c2ccccc2)n1 [Compound B-41, methyl N-(5,6-diphenyl-1,2,4-triazin-3-yl)carbamate]",8%
12,"CN(C)CCOc1nnc(-c2ccccc2)c(-c2ccccc2)n1 [Compound B-42, 2-[(5,6-diphenyl-1,2,4-triazin-3-yl)oxy]-N,N-dimethyl-ethanamine]",8%
13,"CNC(=O)CNc1nnc(-c2ccccc2)c(-c2ccccc2)n1 [Compound B-43, 2-[(5,6-diphenyl-1,2,4-triazin-3-yl)amino]-N-methyl-acetamide]",6%
14,"CC(Sc1nnc(-c2ccccc2)c(-c2ccccc2)n1)C(=O)O (stereo not shown) [Compound B-44, 2-[(5,6-diphenyl-1,2,4-triazin-3-yl)sulfanyl]propanoic acid]",5%
15,"CNC(=O)C(C)Sc1nnc(-c2ccc(O)cc2)c(-c2ccc(O)cc2)n1 (stereo not shown) [Compound B-45, 2-[[5,6-bis(4-hydroxyphenyl)-1,2,4-triazin-3-yl]sulfanyl]-N-methyl-propanamide]",5%
16,"OCCSc1nnc(-c2ccccc2)c(-c2ccccc2)n1 [Compound B-46, 2-[(5,6-diphenyl-1,2,4-triazin-3-yl)sulfanyl]ethanol]",5%
17,"CCC(=O)Nc1nnc(-c2ccccc2)c(-c2ccccc2)n1 [Compound B-47, N-(5,6-diphenyl-1,2,4-triazin-3-yl)propanamide]",4%

row,SMILES,relative TRPM8 activation
1,"CC(Sc1nnc(-c2ccccc2)c(-c2ccccc2)n1)C(=O)NCc1cccs1 (stereo not shown) [Compound B-48, 2-[(5,6-diphenyl-1,2,4-triazin-3-yl)sulfanyl]-N-(2-thienylmethyl) propanamide]",4%
2,"c1ccc(CSc2nnc(-c3ccccc3)c(-c3ccccc3)n2)cc1 [Compound B-49, 3-benzylsulfanyl-5,6-diphenyl-1,2,4-triazine]",3%
3,"c1ccc(-c2nnc(NCCC3CC3)nc2-c2ccccc2)cc1 [Compound B-50, N-(2-cyclopropylethyl)-5,6-diphenyl-1,2,4-triazin-3-amine]",3%
4,"c1ccc(-c2nnc(NC3COC3)nc2-c2ccccc2)cc1 [Compound B-51, N-(oxetan-3-yl)-5,6-diphenyl-1,2,4-triazin-3-amine]",3%
5,"CNC(=O)COc1nnc(-c2ccccc2)c(-c2ccccc2)n1 [Compound B-52, 2-[(5,6-diphenyl-1,2,4-triazin-3-yl)oxy]-N-methyl-acetamide]",3%
6,"O=C(COc1nnc(-c2ccccc2)c(-c2ccccc2)n1)NC1CC1 [Compound B-53, N-cyclopropyl-2-[(5,6-diphenyl-1,2,4-triazin-3-yl)oxy]acetamide]",2%
7,"OCC(O)CNc1nnc(-c2ccccc2)c(-c2ccccc2)n1 (stereo not shown) [Compound B-54, 3-[(5,6-diphenyl-1,2,4-triazin-3-yl)amino]propane-1,2-diol]",2%
8,"COCCNc1nnc(-c2ccccc2)c(-c2ccccc2)n1 [Compound B-55, N-(2-methoxyethyl)-5,6-diphenyl-1,2,4-triazin-3-amine]",2%
9,"NC(=O)Nc1nnc(-c2ccccc2)c(-c2ccccc2)n1 [Compound B-56, (5,6-diphenyl-1,2,4-triazin-3-yl)urea]",2%
10,"CNC(=O)C(C)Oc1nnc(-c2ccccc2)c(-c2ccccc2)n1 (stereo not shown) [Compound B-57, 2-[(5,6-diphenyl-1,2,4-triazin-3-yl)oxy]-N-methyl-propanamide]",2%
11,"OCCNc1nnc(-c2ccccc2)c(-c2ccccc2)n1 [Compound B-58, 2-[(5,6-diphenyl-1,2,4-triazin-3-yl)amino]ethanol]",1%
12,"CNC(=O)C(C)Sc1cnccn1 (stereo not shown) [Compound B-59, N-methyl-2-pyrazine-2-ylsulfanyl-propanamide]",1%
13,"CNC(=O)C(C)Sc1nnc(C)c(C)n1 (stereo not shown) [Compound B-60, 2-[(5,6-dimethyl-1,2,4-triazin-3-yl)sulfanyl]-N-methyl-propanamide]",1%
14,"CCC(Sc1nnc(-c2ccc(OC)c(OC)c2)c(-c2ccc(OC)c(OC)c2)n1)C(=O)NC1CCCC1 (stereo not shown) [Compound B-61, 2-[[5,6-bis(3,4-dimethoxyphenyl)-1,2,4-triazin-3-yl]sulfanyl]-N-cyclopentyl-butanamide]",1%
15,"Cc1ccc(-c2nnc(SCC(=O)NC3CC3)nc2-c2ccc(C)cc2)cc1 [Compound B-62, 2-[[5,6-bis(p-tolyl)-1,2,4-triazin-3-yl]sulfanyl]-N-cyclopropyl-acetamide]",0%
16,"COC(=O)C(C)Nc1nnc(-c2ccccc2)c(-c2ccccc2)n1 (stereo not shown) [Compound B-63, methyl 2-[(5,6-diphenyl-1,2,4-triazin-3-yl)amino]propanoate]",−2%
17,"CSc1nnc(-c2ccccc2)c(-c2ccccc2)n1 [Compound B-64, 3-methylsulfanyl-5,6-diphenyl-1,2,4-triazine]",−3%
